Measured values as given in ChEMBL document CHEMBL4325859, “Research advances on anticancer activities of matrine and its derivatives: An updated overview” (Eur J Med Chem, 2019).

Key:
MCF7 [1] = experiment: Antiproliferative activity against human MCF7 cells after 48 hrs relative to control; type: functional
MCF7 [2] = experiment: Antiproliferative activity against human MCF7 cells after 72 hrs relative to control; type: functional
MCF7 [3] = experiment: Induction of apoptosis in human MCF7 cells at 0.25 to 2 mg/ml (reference value: 1.1 +/- 0.08%); type: functional
SMMC-7721 = experiment: Antiproliferative activity against human SMMC7721 cells at 5 ug/ml after 72 hrs by MTT assay relative to control; type: functional
SGC-7901 [4] = experiment: Growth inhibition of human SGC7901 cells at 60 mg/ml after 72 hrs by MTT assay relative to control; type: functional; settings: SGC-7901, 72 h, read-out: GI
SGC-7901 [5] = experiment: Induction of apoptosis in human SGC7901 cells at 30 mg/ml after 48 hrs by propidium iodide staining based flow cytometry (reference value: 3.54 +/- 0.47%); type: functional
SGC-7901 [6] = experiment: Induction of apoptosis in human SGC7901 cells at […] after 48 hrs by propidium iodide staining based flow cytometry (reference value: 3.54 +/- 0.47%); type: functional
PANC-1 = experiment: Antiproliferative activity against human PANC1 cells after 72 hrs by MTT assay; type: functional, cell-based; settings: PANC-1, 72 h
BXPC-3 = experiment: Induction of apoptosis in human BxPC3 cells at 0.25 mg/ml by flow cytometry (reference value: 2.81%); type: functional
PC-3 = experiment: Growth inhibition of human PC3 cells at 6 g/L after 72 hrs relative to control; type: functional; settings: PC-3, 72 h, read-out: GI
CCRF-CEM = experiment: Antiproliferative activity against human CCRF-CEM cells after 72 hrs by WST1 assay; type: functional, cell-based
NB-4 = experiment: Antiproliferative activity against human NB4 cells after 24 hrs by MTT assay; type: functional, cell-based; settings: NB-4, 24 h
U-937 = experiment: Antiproliferative activity against human U937 cells after 24 hrs by MTT assay; type: functional, cell-based; settings: U-937, 24 h
RPMI-8226 [7] = experiment: Growth inhibition of human RPMI8226 cells at 500 mg/L after 48 hrs by MTT assay relative to control; type: functional; settings: RPMI-8226, 48 h, read-out: GI
RPMI-8226 [8] = experiment: Growth inhibition of human RPMI8226 cells at […] after 24 hrs relative to control; type: functional; settings: RPMI-8226, 24 h, read-out: GI
U-266 = experiment: Induction of apoptosis in human U266 cells at 2 g/L after 48 hrs by Annexin V-FITC/propidium iodide staining based flow cytometry (Rvb < 3%); type: functional
RD = experiment: Induction of apoptosis in human RD cells at 1 mg/ml after 24 hrs by Annexin V-FITC/propidium iodide staining based flow cytometry relative to control; type: functional
KYSE-150 cell line [9] = experiment: Antiproliferative activity against human KYSE-150 cells assessed as cell viability at 0.5 mg/ml after 24 hrs by MTT assay relative to control; type: functional; settings: KYSE-150, 24 h, read-out: Activity
KYSE-150 cell line [10] = experiment: Antiproliferative activity against human KYSE-150 cells assessed as cell viability at 1 mg/ml after 24 hrs by MTT assay relative to control; type: functional; settings: KYSE-150, 24 h, read-out: Activity
KYSE-150 cell line [11] = experiment: Antiproliferative activity against human KYSE-150 cells assessed as cell viability at 2 mg/ml after 24 hrs by MTT assay relative to control; type: functional; settings: KYSE-150, 24 h, read-out: Activity
HT-29 [12] = experiment: Growth inhibition of human HT-29 cells at 8 ml/L after 24 hrs by MTT assay relative to control; type: functional
HT-29 [13] = experiment: Growth inhibition of human HT-29 cells at 8 ml/L after 36 hrs by MTT assay relative to control; type: functional
HT-29 [14] = experiment: Growth inhibition of human HT-29 cells at 4 ml/L after 48 hrs by MTT assay relative to control; type: functional
HT-29 [15] = experiment: Growth inhibition of human HT-29 cells at 32 ml/L after 48 hrs by MTT assay relative to control; type: functional
HT-29 [16] = experiment: Synergistic growth inhibition of human HT-29 cells at 0.25 mg/ml cotreated with 1.25 ug/ml irinotecan by MTT assay relative to control; type: functional
HOS = experiment: Growth inhibition of human HOS cells at 3.2 mg/ml after 48 hrs by MTT assay relative to control; type: functional; settings: read-out: GI
U2OS = experiment: Growth inhibition of human U2OS cells after 48 hrs by MTT assay; type: functional, cell-based
UMR108 = experiment: Growth inhibition of rat UMR108 cells assessed as cell proliferation at 1 mg/ml after 72 hrs by MTT assay (reference value: 0.403 +/- 0.009%); type: functional; settings: UMR108, 72 h, read-out: Activity
[17] = Growth inhibition of human GRC1 cells at 0.8 g/L after 24 hrs by MTT assay relative to control; type: functional; settings: read-out: GI
[18] = Growth inhibition of human GRC1 cells at 1 g/L after 24 hrs by MTT assay relative to control; type: functional; settings: read-out: GI
[19] = Growth inhibition of human GRC1 cells at 1.5 g/L after 24 hrs by MTT assay relative to control; type: functional; settings: read-out: GI
[20] = Growth inhibition of human GRC1 cells at 0.8 g/L after 72 hrs by MTT assay relative to control; type: functional; settings: read-out: GI
[21] = Growth inhibition of human GRC1 cells at 1 g/L after 72 hrs by MTT assay relative to control; type: functional; settings: read-out: GI
[22] = Growth inhibition of human GRC1 cells at 0.5 g/L after 96 hrs by MTT assay relative to control; type: functional; settings: read-out: GI
D341 cell line [23] = experiment: Growth inhibition of human D341 cells at 0.5 mg/ml after 72 hrs by CCK8 assay relative to control; type: functional; settings: D341, 72 h, read-out: GI
D341 cell line [24] = experiment: Growth inhibition of human D341 cells at 1 mg/ml after 72 hrs by CCK8 assay relative to control; type: functional; settings: D341, 72 h, read-out: GI
D341 cell line [25] = experiment: Growth inhibition of human D341 cells at 2 mg/ml after 48 hrs by CCK8 assay relative to control; type: functional; settings: D341, 48 h, read-out: GI
M21 [26] = experiment: Induction of apoptosis in human M21 cells at 0.2 mg/ml after 48 hrs by Annexin V-FITC/propidium iodide staining based flow cytometry relative to control; type: functional
M21 [27] = experiment: Induction of apoptosis in human M21 cells at 0.8 mg/ml after 48 hrs by Annexin V-FITC/propidium iodide staining based flow cytometry relative to control; type: functional
C-33-A [28] = experiment: Induction of apoptosis in human C33A cells at 25 ug/ml after 48 hrs by Annexin V-FITC/propidium iodide staining based flow cytometry relative to control; type: functional
C-33-A [29] = experiment: Induction of apoptosis in human C33A cells at 50 ug/ml after 48 hrs by Annexin V-FITC/propidium iodide staining based flow cytometry relative to control; type: functional
SiHa = experiment: Antiproliferative activity against human SiHa cells after 48 hrs by CCK8 assay; type: functional, cell-based
C-33-A [30] = experiment: Antiproliferative activity against human C33A cells after 48 hrs by CCK8 assay; type: functional, cell-based
HK-2 = experiment: Antiproliferative activity against human HK2 cells after 48 hrs by CCK8 assay; type: functional, cell-based; settings: HK-2, 48 h

Structure (SMILES): O=C1CCC[C@@H]2[C@H]3CCCN4CCC[C@@H](CN12)[C@@H]34 [MATRINE]
- Activity (MCF7 [1]): 7.56 - 53.92%
- Activity (MCF7 [2]): 10.86 - 70.23%
- Activity (MCF7 [3]): 4.17 - 19.63%
- Activity (SMMC-7721): 3%
- inhibition of growth at 60000 µg/mL (SGC-7901 [4]): 40%
- Activity (SGC-7901 [5]): 12.89%
- Activity (SGC-7901 [6]): 34.59%
- IC50 (PANC-1): 3.66 mM
- Activity (BXPC-3): 9.9%
- inhibition of growth at 6000 µg/mL (PC-3): 90%
- IC50 (CCRF-CEM): 9.63 mM
- IC50 (NB-4): 2660 nM
- IC50 (U-937): 2370 nM
- inhibition of growth at 500 µg/mL (RPMI-8226 [7]): 17.9%
- inhibition of growth at 2 g/mL (RPMI-8226 [8]): 74%
- Activity (U-266): 71.05%
- Activity (RD): 26.5%
- viability at 500 µg/mL (KYSE-150 cell line [9]): 82.2%
- viability at 1000 µg/mL (KYSE-150 cell line [10]): 69.8%
- viability at 2000 µg/mL (KYSE-150 cell line [11]): 53.7%
- growth inhibition (GI) (HT-29 [12]): 45.96%
- growth inhibition (GI) (HT-29 [13]): 58.2%
- growth inhibition (GI) (HT-29 [14]): 54.22%
- growth inhibition (GI) (HT-29 [15]): 84.2%
- growth inhibition (GI) (HT-29 [16]): 31.08%
- inhibition of growth at 3200 µg/mL (HOS): 57%
- IC50 (U2OS): 7.25 mM
- growth at 1000 µg/mL (UMR108): 0.195%
- inhibition of growth at 800 µg/mL [17]: 20.5%
- inhibition of growth at 1000 µg/mL [18]: 23.6%
- inhibition of growth at 1500 µg/mL [19]: 31.6%
- inhibition of growth at 800 µg/mL [20]: 25.4%
- inhibition of growth at 1000 µg/mL [21]: 29.2%
- inhibition of growth at 500 µg/mL [22]: 22.4%
- inhibition of growth at 500 µg/mL (D341 cell line [23]): 12.7%
- inhibition of growth at 1000 µg/mL (D341 cell line [24]): 28.3%
- inhibition of growth at 2000 µg/mL (D341 cell line [25]): 47.2%
- Activity (M21 [26]): 24.1%
- Activity (M21 [27]): 40.3%
- Activity (C-33-A [28]): 5.31%
- Activity (C-33-A [29]): 15.37%
- IC50 (SiHa): 5.76 mM
- IC50 (C-33-A [30]): 5.92 mM
- IC50 (HK-2): 4.71 mM
